Results published in patent US7138361B2, “Herbicidal heterocycles” (E. I. du Pont de Nemours and Company, priority 2000, dated 2006).

Tests used:
Format in all cases: in vivo
Nightshade = assay: Test C preemergence; details: Rate 500 g/ha, visual evaluation after 12 to 14 days
[1] = test system: pigweed (Amaranthus retroflexus); assay: Test B preemergence
Summary of the method: (§1)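 Post-treatment, species sat 13–15 days under greenhouse conditions before visual scoring against controls, 0 (no effect) through 100 (complete control). Application preemergence to sown seeds or postemergence at 1- to 4-leaf stage, using a non-phytotoxic solvent/surfactant formulation.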

[2] = test system: cocklebur (Xanthium strumarium); assay: Test B preemergence
Summary of the method: as §1

[3] = test system: lambsquarters (Chenopodium album); assay: Test B preemergence
Summary of the method: as §1

[4] = test system: morning glory (Ipomoea hederacea); assay: Test B preemergence
Summary of the method: as §1

[5] = test system: velvetleaf (Abutilon theophrasti); assay: Test B preemergence
Summary of the method: as §1

rice (Oryza saliva) = assay: Test B preemergence
Summary of the method: as §1

[6] = test system: crabgrass (Digitaria sanguinalis); assay: Test B preemergence
Summary of the method: as §1

corn (Zea mays) = assay: Test B preemergence
Summary of the method: as §1

[7] = test system: giant foxtail (Setaria faberii); assay: Test B preemergence
Summary of the method: as §1

[8] = test system: barnyardgrass (Echinochloa crus-galli); assay: Test B preemergence
Summary of the method: as §1

[9] = test system: Surinam grass (Brachiaria decumbens); assay: Test B preemergence
Summary of the method: as §1

Sunflower = assay: Test C preemergence; details: Rate 250 g/ha, scale 0 to 100, 0 no effect, 100 complete control
[10] = test system: pigweed (Amaranthus retroflexus); assay: Test C preemergence
Summary of the method: (§2)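 Visual injury scores of 0–100, with 100 meaning complete control, were given relative to controls after 12–14 days in the greenhouse. Treatments used a surfactant-containing non-phytotoxic solvent formulation, sprayed on seeded pots preemergence or on 1–4-leaf plants of 2–18 cm postemergence.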

[11] = test system: cocklebur (Xanthium strumarium); assay: Test C preemergence
Summary of the method: as §2

soybean (Glycine max) = assay: Test C preemergence
Summary of the method: as §2

[12] = test system: bermudagrass (Cynodon dactylon); assay: Test C preemergence
Summary of the method: as §2

[13] = test system: crabgrass (Digitaria sanguinalis); assay: Test C preemergence
Summary of the method: as §2

[14] = test system: giant foxtail (Setaria faberii); assay: Test C preemergence
Summary of the method: as §2

kochia (Kochia scoparia) = assay: Test C preemergence
Summary of the method: as §2

[15] = test system: Surinam grass (Brachiaria decumbens); assay: Test C preemergence
Summary of the method: as §2

[16] = test system: woolly cupgrass (Eriochloa villosa); assay: Test C preemergence
Summary of the method: as §2

[17] = Preemergence, Rate 500 g/ha, scale 0 to 100, 0 no effect, 100 complete control
[18] = preemergence, Rate 125 g/ha, scale of 0 to 100 where 0 is no effect and 100 is complete control, 13 to 15 days
[19] = Rate 125 g/ha, scale 0 to 100, 0 no effect, 100 complete control
[20] = preemergence, Rate 62 g/ha, scale 0 to 100
[21] = preemergence, Rate 500 g/ha, visual evaluation after 12 to 14 days
[22] = preemergence, Rate 250 g/ha, scale 0 to 100, 0 no effect, 100 complete control

## CCCC(C)c1ccn(C2OCN(c3cccc(OC(F)(F)F)c3)C2=O)n1 (stereo not drawn) [Compound 91]
Nightshade
  Plant response rating (0 to 100), Nightshade: 10
[1]; [17]
  Plant response rating, Pigweed: 100
[1]; [18]
  Plant response rating, Pigweed: 90
[2]; [17]
  Plant response rating, Cocklebur: 0
[2]; [18]
  Plant response rating, Cocklebur: 0
[3]; [17]
  Plant response rating, Lambsquarters: 100
[3]; [18]
  Plant response rating, Lambsquarters: 100
[4]; [17]
  Plant response rating, Morningglory: 0
[4]; [18]
  Plant response rating, Morningglory: 0
[5]; [17]
  Plant response rating, Velvetleaf: 0
[5]; [18]
  Plant response rating, Velvetleaf: 0
Rice (Oryza saliva); [17]
  Plant response rating, Rice: 0
Rice (Oryza saliva); [18]
  Plant response rating, Rice: 0
[6]; [17]
  Plant response rating, Crabgrass: 100
[6]; [18]
  Plant response rating, Crabgrass: 100
Corn (Zea mays); [17]
  Plant response rating, Corn: 30
Corn (Zea mays); [18]
  Plant response rating, Corn: 0
[7]; [17]
  Plant response rating, Foxtail, Giant: 100
[7]; [18]
  Plant response rating, Foxtail, Giant: 90
[8]; [17]
  Plant response rating, Barnyardgrass: 100
[8]; [18]
  Plant response rating, Barnyardgrass: 100
[9]; [17]
  Plant response rating, Surinam grass: 80
[9]; [18]
  Plant response rating, Surinam grass: 70
Sunflower
  Plant response rating, Sunflower: 0
[10]; [19]
  Plant response rating, Pigweed: 0
[10]; [20]
  Plant response rating, Pigweed: 0
[10]; [21]
  Plant response rating (0 to 100), Pigweed: 100
[10]; [22]
  Plant response rating, Pigweed: 0
[11]; [19]
  Plant response rating, Cocklebur: 0
[11]; [20]
  Plant response rating, Cocklebur: 0
[11]; [21]
  Plant response rating (0 to 100), Cocklebur: 10
[11]; [22]
  Plant response rating, Cocklebur: 0
Soybean (Glycine max); [19]
  Plant response rating, Soybean: 0
Soybean (Glycine max); [20]
  Plant response rating, Soybean: 0
Soybean (Glycine max); [21]
  Plant response rating (0 to 100), Soybean: 0
Soybean (Glycine max); [22]
  Plant response rating, Soybean: 0
[12]; [19]
  Plant response rating, Bermudagrass: 100
[12]; [20]
  Plant response rating, Bermudagrass: 10
[12]; [21]
  Plant response rating (0 to 100 where 0 is no effect and 100 is complete control), Bermudagrass: 100
[12]; [22]
  Plant response rating, Bermudagrass: 100
[13]; [19]
  Plant response rating, Crabgrass: 100
[13]; [20]
  Plant response rating, Crabgrass: 100
[13]; [21]
  Plant response rating (0 to 100), Crabgrass: 100
[13]; [22]
  Plant response rating, Crabgrass: 100
[14]; [19]
  Plant response rating, Foxtail, Giant: 30
[14]; [20]
  Plant response rating, Foxtail, Giant: 10
[14]; [21]
  Plant response rating (0 to 100), Foxtail, Giant: 100
[14]; [22]
  Plant response rating, Foxtail, Giant: 30
Kochia (Kochia scoparia); [19]
  Plant response rating, Kochia: 90
Kochia (Kochia scoparia); [20]
  Plant response rating, Kochia: 20
Kochia (Kochia scoparia); [21]
  Plant response rating (0 to 100), Kochia: 100
Kochia (Kochia scoparia); [22]
  Plant response rating, Kochia: 90
[15]; [19]
  Plant response rating, Surinam grass: 30
[15]; [20]
  Plant response rating, Surinam grass: 0
[15]; [21]
  Plant response rating (0 to 100), Surinam grass: 80
[15]; [22]
  Plant response rating, Surinam grass: 30
[16]; [19]
  Plant response rating, Cupgrass, Woolly: 70
[16]; [20]
  Plant response rating, Cupgrass, Woolly: 10
[16]; [21]
  Plant response rating (0 to 100), Cupgrass, Woolly: 100
[16]; [22]
  Plant response rating, Cupgrass, Woolly: 90
